ChEMBL document CHEMBL5724914, “Linking interpersonal differences in gut microbiota composition and drug biotransformation activity” (2024)

What was measured:
[1] = human gut metagenome, 24 h, 2 µM
[2] = (§1) The drug is tested on WLS-090 corresponding to human gut metagenome with ENA study accession number: PRJEB37062 and ENA sample accession number: ERS12561753 for biotransformation under anaerobic condition. The drug concentrations were measured over 9 timepoints collected between 0 and 24 hours of incubation by liquid-chromatography-coupled mass spectrometry (LC–MS); conditions: 2 µM
[3] = as §1, with “WLS-240” for “WLS-090”, “ERS12561773” for “ERS12561753”; conditions: 2 µM
[4] = human gut metagenome, 24 h, 2 µM; remark: listed apart in the source
[5] = as §1, with “Z-018” for “WLS-090”, “pig” for “human”, “ERS12561817” for “ERS12561753”; conditions: 2 µM
[6] = as §1, with “Z-006” for “WLS-090”, “mouse” for “human”, “ERS12561806” for “ERS12561753”; conditions: 2 µM
[7] = human gut metagenome, 24 h, 2 µM; remark: listed apart in the source
[8] = as §1, with “WLS-038” for “WLS-090”, “ERS12561745” for “ERS12561753”; conditions: 2 µM
[9] = as §1, with “WLS-006” for “WLS-090”, “ERS12561741” for “ERS12561753”; conditions: 2 µM
[10] = human gut metagenome, 24 h, 2 µM; remark: listed apart in the source
[11] = human gut metagenome, 24 h, 2 µM; remark: listed apart in the source
[12] = as §1, with “WLS-220” for “WLS-090”, “ERS12561769” for “ERS12561753”; conditions: 2 µM
[13] = as §1, with “WLS-073” for “WLS-090”, “ERS12561749” for “ERS12561753”; conditions: 2 µM
[14] = as §1, with “WLS-370” for “WLS-090”, “ERS12561793” for “ERS12561753”; conditions: 2 µM
[15] = as §1, with “WLS-039” for “WLS-090”, “ERS12561746” for “ERS12561753”; conditions: 2 µM
[16] = as §1, with “WLS-310” for “WLS-090”, “ERS12561785” for “ERS12561753”; conditions: 2 µM
[17] = as §1, with “Z-003” for “WLS-090”, “pig” for “human”, “ERS12561803” for “ERS12561753”; conditions: 2 µM
[18] = human gut metagenome, 24 h, 2 µM; remark: listed apart in the source
[19] = human gut metagenome, 24 h, 2 µM; remark: listed apart in the source
[20] = as §1, with “Z-025” for “WLS-090”, “rabbit” for “human”, “ERS12561824” for “ERS12561753”; conditions: 2 µM
Also: call rule not given here.

CN(C)CC(c1ccc(O)cc1)C1(O)CCCCC1.O=C(O)CCC(=O)O (stereo not given) [DESVENLAFAXINE SUCCINATE]
Bacterial Biotransformation [1]: Compound NOT metabolized
Bacterial Biotransformation [2]: Compound NOT metabolized
Bacterial Biotransformation [3]: Compound NOT metabolized
Bacterial Biotransformation [4]: Compound NOT metabolized
Bacterial Biotransformation [5]: Compound NOT metabolized
Bacterial Biotransformation [6]: Compound NOT metabolized
Bacterial Biotransformation [7]: Compound NOT metabolized
Bacterial Biotransformation [8]: Compound NOT metabolized
Bacterial Biotransformation [9]: Compound NOT metabolized
Bacterial Biotransformation [10]: Compound NOT metabolized
Bacterial Biotransformation [11]: Compound NOT metabolized
Bacterial Biotransformation [12]: Compound NOT metabolized
Bacterial Biotransformation [13]: Compound NOT metabolized
Bacterial Biotransformation [14]: Compound NOT metabolized
Bacterial Biotransformation [15]: Compound NOT metabolized
Bacterial Biotransformation [16]: Compound NOT metabolized
Bacterial Biotransformation [17]: Compound NOT metabolized
Bacterial Biotransformation [18]: Compound NOT metabolized
Bacterial Biotransformation [19]: Compound NOT metabolized
Bacterial Biotransformation [20]: Compound NOT metabolized

CN1CCN(C(=O)O[C@H]2c3nccnc3C(=O)N2c2ccc(Cl)cn2)CC1 [ESZOPICLONE]
Bacterial Biotransformation [1]: Compound NOT metabolized
Bacterial Biotransformation [2]: Compound NOT metabolized
Bacterial Biotransformation [3]: Compound NOT metabolized
Bacterial Biotransformation [4]: Compound NOT metabolized
Bacterial Biotransformation [5]: Compound NOT metabolized
Bacterial Biotransformation [6]: Compound NOT metabolized
Bacterial Biotransformation [7]: Compound NOT metabolized
Bacterial Biotransformation [8]: Compound NOT metabolized
Bacterial Biotransformation [9]: Compound NOT metabolized
Bacterial Biotransformation [10]: Compound NOT metabolized
Bacterial Biotransformation [11]: Compound NOT metabolized
Bacterial Biotransformation [12]: Compound NOT metabolized
Bacterial Biotransformation [13]: Compound NOT metabolized
Bacterial Biotransformation [14]: Compound NOT metabolized
Bacterial Biotransformation [15]: Compound NOT metabolized
Bacterial Biotransformation [16]: Compound NOT metabolized
Bacterial Biotransformation [17]: Compound NOT metabolized
Bacterial Biotransformation [18]: Compound NOT metabolized
Bacterial Biotransformation [19]: Compound NOT metabolized
Bacterial Biotransformation [20]: Compound NOT metabolized

O=C1[C@H](CC[C@H](O)c2ccc(F)cc2)[C@@H](c2ccc(O)cc2)N1c1ccc(F)cc1 [EZETIMIBE]
Bacterial Biotransformation [1]: Compound metabolized
Bacterial Biotransformation [2]: Compound metabolized
Bacterial Biotransformation [3]: Compound metabolized
Bacterial Biotransformation [4]: Compound NOT metabolized
Bacterial Biotransformation [5]: Compound NOT metabolized
Bacterial Biotransformation [6]: Compound NOT metabolized
Bacterial Biotransformation [7]: Compound NOT metabolized
Bacterial Biotransformation [8]: Compound NOT metabolized
Bacterial Biotransformation [9]: Compound metabolized
Bacterial Biotransformation [10]: Compound metabolized
Bacterial Biotransformation [11]: Compound NOT metabolized
Bacterial Biotransformation [12]: Compound metabolized
Bacterial Biotransformation [13]: Compound metabolized
Bacterial Biotransformation [14]: Compound metabolized
Bacterial Biotransformation [15]: Compound NOT metabolized
Bacterial Biotransformation [16]: Compound NOT metabolized
Bacterial Biotransformation [17]: Compound NOT metabolized
Bacterial Biotransformation [18]: Compound NOT metabolized
Bacterial Biotransformation [19]: Compound NOT metabolized
Bacterial Biotransformation [20]: Compound NOT metabolized

CC(C)OC(=O)C(C)(C)Oc1ccc(C(=O)c2ccc(Cl)cc2)cc1 [FENOFIBRATE]
Bacterial Biotransformation [1]: Compound metabolized
Bacterial Biotransformation [2]: Compound metabolized
Bacterial Biotransformation [3]: Compound NOT metabolized
Bacterial Biotransformation [4]: Compound NOT metabolized
Bacterial Biotransformation [5]: Compound metabolized
Bacterial Biotransformation [6]: Compound metabolized
Bacterial Biotransformation [7]: Compound metabolized
Bacterial Biotransformation [8]: Compound NOT metabolized
Bacterial Biotransformation [9]: Compound metabolized
Bacterial Biotransformation [10]: Compound NOT metabolized
Bacterial Biotransformation [11]: Compound NOT metabolized
Bacterial Biotransformation [12]: Compound metabolized
Bacterial Biotransformation [13]: Compound NOT metabolized
Bacterial Biotransformation [14]: Compound metabolized
Bacterial Biotransformation [15]: Compound NOT metabolized
Bacterial Biotransformation [16]: Compound metabolized
Bacterial Biotransformation [17]: Compound metabolized
Bacterial Biotransformation [18]: Compound metabolized
Bacterial Biotransformation [19]: Compound NOT metabolized
Bacterial Biotransformation [20]: Compound metabolized

O=C1NCC2(CCN(CCc3ccccc3)CC2)O1 [FENSPIRIDE]
Bacterial Biotransformation [1]: Compound NOT metabolized
Bacterial Biotransformation [2]: Compound NOT metabolized
Bacterial Biotransformation [3]: Compound NOT metabolized
Bacterial Biotransformation [4]: Compound NOT metabolized
Bacterial Biotransformation [5]: Compound NOT metabolized
Bacterial Biotransformation [6]: Compound NOT metabolized
Bacterial Biotransformation [7]: Compound NOT metabolized
Bacterial Biotransformation [8]: Compound NOT metabolized
Bacterial Biotransformation [9]: Compound NOT metabolized
Bacterial Biotransformation [10]: Compound NOT metabolized
Bacterial Biotransformation [11]: Compound NOT metabolized
Bacterial Biotransformation [12]: Compound NOT metabolized
Bacterial Biotransformation [13]: Compound NOT metabolized
Bacterial Biotransformation [14]: Compound NOT metabolized
Bacterial Biotransformation [15]: Compound NOT metabolized
Bacterial Biotransformation [16]: Compound NOT metabolized
Bacterial Biotransformation [17]: Compound NOT metabolized
Bacterial Biotransformation [18]: Compound NOT metabolized
Bacterial Biotransformation [19]: Compound NOT metabolized
Bacterial Biotransformation [20]: Compound NOT metabolized

OC(Cn1cncn1)(Cn1cncn1)c1ccc(F)cc1F [FLUCONAZOLE]
Bacterial Biotransformation [1]: Compound metabolized
Bacterial Biotransformation [2]: Compound metabolized
Bacterial Biotransformation [3]: Compound metabolized
Bacterial Biotransformation [4]: Compound NOT metabolized
Bacterial Biotransformation [5]: Compound NOT metabolized
Bacterial Biotransformation [6]: Compound NOT metabolized
Bacterial Biotransformation [7]: Compound metabolized
Bacterial Biotransformation [8]: Compound NOT metabolized
Bacterial Biotransformation [9]: Compound metabolized
Bacterial Biotransformation [10]: Compound NOT metabolized
Bacterial Biotransformation [11]: Compound NOT metabolized
Bacterial Biotransformation [12]: Compound NOT metabolized
Bacterial Biotransformation [13]: Compound NOT metabolized
Bacterial Biotransformation [14]: Compound NOT metabolized
Bacterial Biotransformation [15]: Compound NOT metabolized
Bacterial Biotransformation [16]: Compound metabolized
Bacterial Biotransformation [17]: Compound metabolized
Bacterial Biotransformation [18]: Compound NOT metabolized
Bacterial Biotransformation [19]: Compound NOT metabolized
Bacterial Biotransformation [20]: Compound NOT metabolized

CNCCC(Oc1ccc(C(F)(F)F)cc1)c1ccccc1 (stereo not given) [FLUOXETINE]
Bacterial Biotransformation [1]: Compound NOT metabolized
Bacterial Biotransformation [2]: Compound NOT metabolized
Bacterial Biotransformation [3]: Compound metabolized
Bacterial Biotransformation [4]: Compound NOT metabolized
Bacterial Biotransformation [5]: Compound NOT metabolized
Bacterial Biotransformation [6]: Compound NOT metabolized
Bacterial Biotransformation [7]: Compound metabolized
Bacterial Biotransformation [8]: Compound NOT metabolized
Bacterial Biotransformation [9]: Compound NOT metabolized
Bacterial Biotransformation [10]: Compound NOT metabolized
Bacterial Biotransformation [11]: Compound NOT metabolized
Bacterial Biotransformation [12]: Compound NOT metabolized
Bacterial Biotransformation [13]: Compound NOT metabolized
Bacterial Biotransformation [14]: Compound metabolized
Bacterial Biotransformation [15]: Compound NOT metabolized
Bacterial Biotransformation [16]: Compound NOT metabolized
Bacterial Biotransformation [17]: Compound NOT metabolized
Bacterial Biotransformation [18]: Compound NOT metabolized
Bacterial Biotransformation [19]: Compound NOT metabolized
Bacterial Biotransformation [20]: Compound NOT metabolized
